From PubChem BioAssay (NCI)
“And” between values parts separate entries of the source, which are not always exact repeats. Identical values can stand only once.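 How tested: cells in 96-well plates exposed to compound for 48 hours at five concentrations. GI50 marks 50% less growth. TGI denotes the concentration required for complete inhibition of growth.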

How the values were obtained:
Assay in all cases: inhibition of tumour cell growth, NCI panel, 48 h
K-562 leukemia = tested on: K-562 leukemia
HCT-15 colon = tested on: HCT-15 colon
SNB-19 CNS = tested on: SNB-19 CNS
HOP-62 NSCLC = tested on: HOP-62 NSCLC
SK-MEL-28 melanoma = tested on: SK-MEL-28 melanoma
NCI-H226 lung = tested on: NCI-H226 lung
KM12 colon = tested on: KM12 colon
OVCAR-8 ovarian = tested on: OVCAR-8 ovarian
M14 melanoma = tested on: M14 melanoma
A498 renal = tested on: A498 renal

Row | SMILES | GI50 (K-562 leukemia) | TGI (K-562 leukemia) [µM] | GI50 (HCT-15 colon) | TGI (HCT-15 colon) | GI50 (SNB-19 CNS) | TGI (SNB-19 CNS) | GI50 (HOP-62 NSCLC) | TGI (HOP-62 NSCLC) | GI50 (SK-MEL-28 melanoma) | TGI (SK-MEL-28 melanoma) | GI50 (NCI-H226 lung) | TGI (NCI-H226 lung) | GI50 (KM12 colon) | TGI (KM12 colon) | GI50 (OVCAR-8 ovarian) | TGI (OVCAR-8 ovarian) | GI50 (M14 melanoma) | TGI (M14 melanoma) [µM] | GI50 (A498 renal) | TGI (A498 renal)
1 | COC(=O)[C@]1(C)CCC[C@@]2(C)C3=C(CC[C@H]12)C[C@@H](CC(OC(C)=O)OC(C)=O)[C@@H](C)C3 | 14.7 µM | > 50 | 15.4 µM | > 40.7 µM | 13.5 µM | 32.1 µM | 11.3 µM | 23.4 µM | 11.5 µM | 24.5 µM | 11.2 µM | 31.1 µM | 10.1 µM | 22.6 µM | 10.2 µM | 20.5 µM | 11.1 µM | 20 | 11.5 µM | 19.9 µM
2 | C=C1C(=O)O[C@@H]2/C=C(/C)[C@@H](OC(C)=O)C[C@@H](O)/C(C)=C\[C@@H](OC(=O)[C@]3(C)O[C@@H]3C)[C@@H]12 |  | 17.5 |  | 34.1 µM |  | > 100 µM |  | > 100 µM |  | 23.2 µM |  | > 100 µM |  | 36.3 µM |  | 27.4 µM |  | 25 |  | 32.3 µM
3 | Cc1c(C(=O)Nc2ccc(N3C[C@@H](C)O[C@@H](C)C3)nc2)cccc1-c1ccc(OC(F)(F)F)cc1 | 3.44 µM and 3.16 µM | > 100 | 12.2 µM and 16.9 µM | 38.8 µM and 55.8 µM | 7.85 µM and 21.3 µM | 32 µM and > 100 µM | 12.2 µM and 16.5 µM | 46.2 µM and 36.8 µM | 12.9 µM and 16.8 µM | 33.6 µM and 40.1 µM | 8.11 µM and 13.8 µM | 31.9 µM and 40.8 µM | 12.7 µM and 9.64 µM | 59 µM and 50.4 µM | 7.9 µM and 10.8 µM | 30.9 µM and 46.3 µM | 14.4 µM and 19.3 µM | > 100 | 3.77 µM and 2.04 µM | 14 µM and 9.97 µM
4 | CN(C(=O)C(C)(C)C)c1ccccc1I(=O)=O | 14.1 µM | 35.5 | 84.3 µM | > 100 µM | > 100 µM | > 100 µM |  |  | 92.5 µM | > 100 µM | > 100 µM | > 100 µM | > 100 µM | > 100 µM | > 100 µM | > 100 µM |  |  | > 100 µM | > 100 µM
5 | CC1=CC2(C)/C=C(C)/C=C\CC(O)/C=C3/C=CC(=C4C(=O)OC2(CC1C)C4=O)OC3 (stereo not given) | 1.2 µM | > 100 | 1.47 µM | 3.69 µM | 12 µM | 25.9 µM | 8.63 µM | 26.2 µM | 1.6 µM | 3.33 µM | 11.8 µM | 47.9 µM | 3.17 µM | 10.5 µM | 2.12 µM | 9.01 µM | 2.8 µM | 9.21 | 2.65 µM | 8.11 µM
6 | NC(=O)NNC/C(Cl)=C(\Cl)C(=O)O |  | > 100 |  | > 100 µM |  | > 100 µM |  | > 100 µM |  | > 100 µM |  | > 100 µM |  | > 100 µM |  | > 100 µM |  | > 100 |  | > 100 µM
7 | COc1nn(C)cc1Nc1nccc(-c2c[nH]c3c(NC(=O)[C@@H](C)N4CCN(C)CC4)cccc23)n1 | 29.2 µM | > 100 | 37.6 µM | > 100 µM | 75.6 µM | > 100 µM | 23.1 µM | > 100 µM | 53.9 µM | > 100 µM | 14.3 µM | > 100 µM | 37.6 µM | > 100 µM | > 100 µM | > 100 µM | 18.9 µM | 41.2 | 15.9 µM | 45.2 µM
8 | CCC(=O)NC1=C(Cl)C(=O)C(NC(=O)CC)=C(Cl)C1=O | 11.8 µM | > 27.9 | 9.02 µM | 27.1 µM | > 41 µM | > 55.7 µM | > 47.7 µM | > 65.1 µM | 10.5 µM | 23.2 µM | > 45.6 µM | > 62.1 µM | > 43.9 µM | > 57.8 µM | 37.4 µM | > 60.6 µM | 15.2 µM | 29.9 | 38.2 µM | > 72.6 µM
9 | C[C@]12CC[C@H]3[C@@H](CC[C@]4(O)C[C@@H](O)CC[C@]34C=O)[C@@]1(O)CC[C@@H]2C1=CC(=O)OC1 |  | > 100 |  | 1.47 µM |  | 4.87 µM |  | 0.533 µM |  | 4.84 µM |  | 2.69 µM |  | 6.66 µM |  | 1.69 µM |  | 3.51 |  | 1.93 µM
10 | CC(=O)OC1CC2(C)C(=CC1C1SCCS1)CCC1C2CCC2(C)C(OC(C)=O)CCC12 (stereo not given) |  | > 100 |  | > 100 µM |  | > 100 µM |  | > 100 µM |  | > 100 µM |  | > 100 µM |  | > 100 µM |  | > 100 µM |  | > 100 |  | > 100 µM
11 | CC(=O)C(CN1C(=O)c2ccccc2C1=O)C(C)=O |  | > 100 |  | > 100 µM |  | > 100 µM |  | > 100 µM |  | > 100 µM |  | > 100 µM |  |  |  | > 100 µM |  | > 100 |  | > 100 µM
12 | COC(=O)CC[C@@H](C)[C@H]1CC[C@H]2[C@@H]3CC[C@@H]4C[C@H](O)CC[C@]4(C)[C@H]3CC[C@]12C |  | 65.7 |  | 33.7 µM |  | 44.9 µM |  | 35.5 µM |  | 35.6 µM |  | 36.6 µM |  | 34.5 µM |  | 38.2 µM |  | 35.8 |  | 35.1 µM
13 | Clc1ccc2c(NC3CCC(N4CCCCC4)CC3)ccnc2c1 (stereo not given) |  | 62.1 |  | > 100 µM |  | > 100 µM |  | > 100 µM |  | 36.8 µM |  | 48.1 µM |  | 51.9 µM |  | > 100 µM |  | 18.1 |  | 38.6 µM
14 | O=C1OC(OC/C(Br)=C(\Br)COC2OC(=O)C(Cl)=C2Cl)C(Cl)=C1Cl (stereo not given) |  | 5.55 |  | 10.1 µM |  | 34.3 µM |  | 29.5 µM |  | 22.1 µM |  | 40.8 µM |  | 55.7 µM |  | 13.3 µM |  | 10.4 |  | 34.1 µM
15 | O=C(Nc1nc2c(C(F)(F)F)cccc2s1)c1cc(Cl)ccc1O | 0.327 µM | > 100 | 0.338 µM | 13.2 µM | 0.345 µM | 65.6 µM | 0.312 µM | 19.3 µM | 0.331 µM | 8.18 µM | 0.269 µM | 1.31 µM | 0.363 µM | 11.8 µM | 0.326 µM | 53.8 µM | 0.35 µM | 22.8 | 0.181 µM | 0.519 µM
16 | Cc1ccc(NC(=O)COc2ccc(Cl)cc2)cc1Cl |  | > 100 |  | > 100 µM |  | > 100 µM |  | > 100 µM |  | > 100 µM |  | > 100 µM |  | > 100 µM |  | > 100 µM |  | > 100 |  | > 100 µM
